According to patent US8106099B2, “Combination of phenylcarboxamides with blockers of the IKr channel and their use for the treatment of atrial arrhythmias” (Sanofi-Aventis Deutschland GmbH, priority 2003, dated 2012):
“Also recorded” adds a separate entry of the source.

How the values were obtained:
[1] = tested on: goats in persistent atrial fibrillation; assay: Investigation of cardioversion and AFCL in chronically fibrillating goats (two goats); type: in vivo; conditions: for effect on the AFCL by the substance on its own (in words) / cardioversion / termination of persistent fibrillation by the substance on its own: persistent AF goat model; for cardioversion / termination of persistent fibrillation by the substance on its own: example 1 at 0.1-10 mg/kg/h in the goat of table 4
Description: Investigation of Cardioversion in Chronically Fibrillating Goats
Experiments were carried out on two goats which were in persistent atrial fibrillation of more than 45 days.
The measurements of the AFCL and of the cardioversion were carried out successively.

[2] = tested on: normal and remodeled atria of goats; assay: Investigation of the refractory period (AERP) in normal goats and in goats with remodeled atria; type: in vivo; conditions: for effect on the AERP in remodeled atrium compared with normal atrium: remodeled versus normal atrium
Description: Investigation of the Refractory Period in Normal Goats and in Goats with Remodeled Atria
This electrical remodeling, which reflects the situation in the patient, was achieved by repetitive atrial stimulations as published by Wijffels et al. (Atrial fibrillation begets atrial fibrillation. A study in awake chronical instrumented goats. Circulation 1995, 92, 1954-68).
In the monotherapy, 0.12 mg of ibutilide per kg of bodyweight was administered over the length of time of 60 minutes (0.002 mg per kg per minute).
A similar infusion scheme was carried out on 5 further animals with dofetilide instead of ibutilide. […] In the monotherapy, 0.12 mg of dofetilide per kg of bodyweight was administered over the length of time of 60 minutes (0.002 mg per kg per minute).

Row | SMILES | effect on the AFCL by the substance on its own (in words) [1] | cardioversion / termination of persistent fibrillation by the substance on its own [1] | prolongation of the AERP ([2]; remodeled atria, n=5 goats, dofetilide study) | effect on the AERP in remodeled atrium compared with normal atrium [2] | doses of the compound of example 1 that brought about cardioversion / termination of the atrial fibrillation ([1]; goat of table 3, monotherapy, or combination with ibutilide 2 mg/kg) | dose of the Kv1.5 blocker of example 1 leading to cardioversion / termination of persistent fibrillation ([1]; summary in description, combination with very low doses (for example 10 μg/kg) of the IKr channel blocker) | prolongation of the AERP ([2]; normal atria, n=5 goats, dofetilide study) | prolongation of the AERP ([2]; normal atria, n=7 goats, ibutilide study, relative to control before administration) | effective atrial refractory period (AERP), mean value ± SD ([2]; remodeled atria (induced AF 1 to 4 days), 7 goats, cycle length 400 ms, same infusion scheme with ibutilide) | effect on the AFCL by the substance on its own (in words) ([1]; listed as ibutilide) | prolongation of the AERP ([2]; remodeled atria, n=7 goats, ibutilide study)
1 | CN(CCOc1ccc(NS(C)(=O)=O)cc1)CCc1ccc(NS(C)(=O)=O)cc1 [Dofetilide] | slight prolongation | a cardioversion does not occur; also recorded: not to a termination of the fibrillation | 7 ms | markedly lower | – | – | – | – | – | – | –
2 | COc1ccc(CC(=O)NCc2ccccc2-c2ccccc2C(=O)NCCc2cccnc2)cc1 [Example 1, 2′-{[2-(4-Methoxyphenyl)acetylamino]methyl}biphenyl-2-carboxylic acid (2-pyridin-3-ylethyl)amide] | dose-dependent increase | not to cardioversion | – | markedly greater | 10 mg per kg of bodyweight per ho | 10 mg/kg | 51 ms | 47 ms | 160 ± 16 ms | – | –
3 | CCCCCCCN(CC)CCCC(O)c1ccc(NS(C)(=O)=O)cc1.O=C(O)/C=C/C(=O)O (centres unmarked) [Ibutilide] | very small increase | not to a termination of the fibrillation | – | markedly lower | – | – | – | – | – | slight prolongation | 5 ms
